# Measurements as given in patent publication US9192559B2, “Compositions” (Givaudan SA, priority 2006, dated 2015).
# What was measured:
# A. niger spores = assay: Activity against A. niger spores in skin cream Cremor basalis; type: cell-based, Aspergillus niger
# Protocol: (§1) A preservative-free oil-in-water emulsion skin cream is used. Test samples of cream are made up to contain different amounts of diol compounds and/or benzaldehyde derivatives. The diol compound and the benzaldehyde derivatives is added to an aliquot of 10 g of the cream in 50 ml tubes in a concentration as shown in the table below. After addition of the preservative/preservative enhancer, the cream is thoroughly mixed to achieve a homogeneous distribution. The cream is then stored for 1-3 days to equilibrate at room temperature (in order to achieve a homogenous partitioning of compounds between oil and water phase).
# (§2) For testing of sporicidal effect, to each sample 100 μl of a spore suspension of Aspergillus niger ATCC 16404 containing 3×10^7 spores/ml (prepared as described in example 1) is added.
# (§3) After regular test intervals, samples of 1 g cream are removed and added to 20 ml of a neutralizer solution containing 0.2% lecithin, 2% Tween 80 and 0.5% NaCl. These dilutions are vigorously shaken for 10 min until the cream is dissolved, and then aliquots of this solution are spread plated on potato dextrose agar containing 0.2% Tween 80. After 48 h to 72 h the number of surviving colony forming units (and therefore surviving spores) are counted.
# The example is performed as described in example 2 except for the following changes:
# The preservative-free cosmetic cream for application to the human skin is Cremor basalis (commercially available from Fagron GmbH, Barsbüttel, Germany).
# [1] = system: Aspergillus niger ATCC 16404 spores; assay: Sporicidal effect of test compounds in water; type: cell-based; settings: 0.1% test compound in water; for Sporicidal effect (reduction of spore counts), in words: 7 days
# Protocol: Aspergillus niger ATCC 16404 spores are added to water to obtain a density of 3×10^5 spores/ml.
# In order to prepare the spores, the test strain is grown for 5 days on potato dextrose agar at room temperature. The spores are harvested with a solution containing 0.1% Tween 80, peptone 0.1% and NaCl 0.85% and the spore concentration is adjusted to the density indicated above.
# Test compounds are dissolved in dipropyleneglycol to a concentration of 20%.
# These stock solutions are added to 10 ml aliquots of the spore suspension to obtain a final concentration of the test compounds of 0.1%. The sporicidal effect is shown by a reduction of spore counts after 7 days.
# The reduction factor is determined as follows. Aliquots of the above prepared suspension of microorganisms (here: spore suspension prepared as described above) are plated on a suitable agar medium (see above) and the developing colonies are counted both for samples with test compound and for a negative probe (water). The count of the negative control is divided by the count of the test compound and thereby the reduction factor is determined. A negative control (water) accordingly has a reduction factor of 1 (no effect on the microorganism).
# [2] = system: Aspergillus niger ATCC 16404 spores; assay: Sporicidal activity in a preservative-free oil-in-water emulsion skin cream; type: cell-based; settings: 0.1% 4-hydroxybenzaldehyde, 0% diol, listed as benzaldehyde derivative
# Protocol: as §1, §2, §3
# The count of the negative control is divided by the count of the probe and thereby the reduction factor is determined.
smiles,measurement,setting,value
"CCCCCCC(O)CO (centres unmarked) [1,2-Octandiol, 1,2-octanediol]","Reduction factor fungal spores, 7d","A. niger spores; preservative 0.25%, no 4-HBA",2.2
"CC(CO)CO [2-Methyl-1,3-propandiol, 2-Methyl-1,3-propanediol]","Reduction factor fungal spores, 7d","A. niger spores; preservative 2%, no 4-HBA",3.3
same,"Reduction factor fungal spores, 7d","A. niger spores; preservative 4%, no 4-HBA",25.9
"CCCCC(CC)COCC(O)CO (centres unmarked) [3-(2-ethyl-hexyloxy)-1,2-propandiol, 3-(2-ethylhexyloxy)propane-1,2-diol]","Reduction factor fungal spores, 7d","A. niger spores; preservative 0.25%, no 4-HBA",3.9
same,"Reduction factor fungal spores, 7d","A. niger spores; preservative 0.5%, no 4-HBA",57.6
O=Cc1ccc(O)cc1 [4-hydroxybenzaldehyde],"Reduction factor fungal spores, 7d",A. niger spores; 0.5% 4-hydroxybenzaldehyde on its own,57.6
same,"Reduction factor fungal spores, 7d","A. niger spores; no added diol, 0.125% 4-HBA",5.5
same,"Sporicidal effect (reduction of spore counts), in words",[1],No significant reduction of spore counts
same,reduction factor 7d fungal spores,[2],no sporicidal effect
COc1ccc(C=O)cc1 [4-methoxy-benzaldehyde],"Sporicidal effect (reduction of spore counts), in words",[1],No significant reduction of spore counts
C=CCCCCCCCCO [9-decenol],"Sporicidal effect (reduction of spore counts), in words",[1],significant sporicidal effect
CC(C)c1ccc(CO)cc1 [Cuminic alcohol],Spores/ml,[1]; after 7 days,>1.2 × 10^5 Spores/ml
same,Reduction factor,"[1]; after 7 days, count of negative control / count of test compound",<2
"CC(CC=O)CCc1ccccc1 (centres unmarked) [Mefranal, 3-methyl-5-phenylpentanal]","Sporicidal effect (reduction of spore counts), in words",[1],significant sporicidal effect
